According to patent publication US6548096B1, “Aspartyl dipeptide ester derivatives and sweeteners” (Ajinomoto Co., Inc., priority 1998, dated 2003):
Where two headings read alike, the source gives them in different places.

Tests used:
[1] = Sensory evaluation of sweetening potency relative to sugar; assay type: in vivo; conditions: for sweetening potency: Relative to sweetening potency of a 4% sucrose aqueous solution; for Sweetening potency (relative to sugar): times that of sugar, sensory evaluation
Excerpt: For example, the sweetening potency of N-[N-[3(3-methyl-4-hydroxyphenyl)propyl]-L-α-aspartyl]-L-phenylalanine 1-methyl ester was approximately 35,000 times that of sugar; that of N-[N-[3-(2-hydroxy-4-methylphenyl)propyl]-L-α-aspartyl]-L-α-phenylalanine 1-methyl ester was approximately 30,000 times that of sugar; that of N-[N-[3-(3-hydroxy-4-methoxyphenyl)propyl]-L-α-aspartyl]-L-phenylalanine 1-methyl ester was approximately 20,000 times that of sugar; that of N-[N-[3-(2-hydroxy-4-methoxyphenyl)propyl]-L-α-aspartyl]-L-phenylalanine 1-methyl ester was approximately 20,000 times that of sugar; that of N-[N-[3-(3-hydroxy-4-methylphenyl)propyl]-L-α-aspartyl]-L-phenylalanine 1-methyl ester was approximately 15,000 times that of sugar; that of N-(N-(3-(3-hydroxyphenyl)propyl]-L-α-aspartyl]-L-phenylalanine 1-methyl ester was approximately 8,000 times that of sugar; that of N-[N-(3-(4-methoxyphenyl)propyl]-L-α-aspartyl]-L-phenylalanine 1-methyl ester was approximately 6,500 times that of sugar; and that of N-(N-[3-(3-hydroxy-4-methoxyphenyl)propyl]-L-α-aspartyl]-L-tyrosine 1-methyl ester was approximately 16,000 times that of sugar.
The structures and the results of the sensory evaluation of aspartyl dipeptide derivatives represented by formula (2) are shown in Table 1. [drawing 3]

[2] = as reported in WO 94/11391 (U.S. Pat. No. 5,480,668); cited from earlier work

Compound	sweetening potency [1]	Sweetening potency (relative to sugar) [1]	further results
COC(=O)[C@H](Cc1ccccc1)NC(=O)[C@H](CC(=O)O)NCCCc1ccc(O)cc1 [Compound 4, N-[N-[3-(4-hydroxyphenyl)propyl]-L-α-aspartyl]-L-phenylalanine 1-methyl ester]	5000	5,000 times	
COC(=O)[C@H](Cc1ccccc1)NC(=O)[C@H](CC(=O)O)NCCCc1ccc(O)c(C)c1 [Compound 16, N-[N-[3-(3-methyl-4-hydroxyphenyl)propyl]-L-α-aspartyl]-L-phenylalanine 1-methyl ester]	35000	approximately 35,000 times	Sweetening potency (relative to sugar) ([1]; listed as Example 17): 35,000 times
COC(=O)[C@H](Cc1ccccc1)NC(=O)[C@H](CC(=O)O)NCCCc1ccc(C)cc1O [Compound 13, N-[N-[3-(2-hydroxy-4-methylphenyl)propyl]-L-α-aspartyl]-L-phenylalanine 1-methyl ester]	30000		Sweetening potency (relative to sugar) ([1]; listed as Example 14): 30,000 times; Sweetening potency (relative to sugar) ([1]; listed as N-[N-[3-(2-hydroxy-4-methylphenyl)propyl]-L-α-aspartyl]-L-α-phenylalanine 1-meth): approximately 30,000 times
COC(=O)[C@H](Cc1ccccc1)NC(=O)[C@H](CC(=O)O)NCCCc1ccc(OC)c(O)c1		approximately 20,000 times	
COC(=O)[C@H](Cc1ccccc1)NC(=O)[C@H](CC(=O)O)NCCCc1ccc(OC)cc1O [Compound 10, N-[N-[3-(2-hydroxy-4-methoxyphenyl)propyl]-L-α-aspartyl]-L-phenylalanine 1-methyl ester]	20000		Sweetening potency (relative to sugar) ([1]; listed as Example 11): 20,000 times
COC(=O)[C@H](Cc1ccccc1)NC(=O)[C@H](CC(=O)O)NCCCc1ccc(C)cc1 [Compound 21, N-[N-[3-(4-Methylphenyl)propyl]-L-α-aspartyl]-L-phenylalanine 1-Methyl Ester]	4000	4,000 times	
COC(=O)[C@H](Cc1ccccc1)NC(=O)[C@H](CC(=O)O)NCCC(C)(C)C [N-[N-(3,3-dimethylbutyl)-L-α-aspartyl]-L-phenylalanine 1-methyl ester]			sweetening potency [2]: 10,000 times that of sugar
CCOc1cc(OC)ccc1CCCN[C@@H](CC(=O)O)C(=O)N[C@@H](Cc1ccccc1)C(=O)OC [Compound 15, N-[N-[3-(2-Ethoxy-4-methoxyphenyl)propyl]-L-α-aspartyl]-L-phenylalanine 1-Methyl Ester]	2500	2,500 times	
COC(=O)[C@H](Cc1ccccc1)NC(=O)[C@H](CC(=O)O)NCCCc1cccc(OC)c1O [Compound 11, N-[N-[3-(2-hydroxy-3-methoxyphenyl)propyl]-L-α-aspartyl]-L-phenylalanine 1-methyl ester]	10000	10,000 times	
COC(=O)[C@H](Cc1ccccc1)NC(=O)[C@H](CC(=O)O)NCCCc1ccc(C)c(O)c1		approximately 15,000 times	
COC(=O)[C@H](Cc1ccccc1)NC(=O)[C@H](CC(=O)O)NCCCc1cccc(O)c1 [Compound 7, N-[N-[3-(3-hydroxyphenyl)propyl]-L-α-aspartyl]-L-phenylalanine 1-methyl ester]	8000	approximately 8,000 times	Sweetening potency (relative to sugar) ([1]; listed as Example 8): 8,000 times
COC(=O)[C@H](Cc1ccccc1)NC(=O)[C@H](CC(=O)O)NCCCc1ccc(OC)c(OC)c1 [Compound 2, N-[N-[3-(3,4-dimethoxyphenyl)propyl]-L-α-aspartyl]-L-phenylalanine 1-methyl ester]	2500	2,500 times	
COC(=O)[C@H](Cc1ccccc1)NC(=O)[C@H](CC(=O)O)NCCCc1ccccc1 [N-[N-(3-phenylpropyl)-L-α-aspartyl]-L-phenylalanine-1-methyl ester]			sweetening potency [2]: 1,500 times that of sugar
COC(=O)[C@H](Cc1ccccc1)NC(=O)[C@H](CC(=O)O)NCCCc1ccc2c(c1)OCO2 [Compound 3, N-[N-[3-(3,4-methylenedioxyphenyl)propyl]-L-α-aspartyl]-L-phenylalanine 1-methyl ester]	5000	5,000 times	
CCOc1ccc(CCCN[C@@H](CC(=O)O)C(=O)N[C@@H](Cc2ccccc2)C(=O)OC)cc1 [Compound 6, N-[N-[3-(4-Ethoxyphenyl)propyl]-L-α-aspartyl]-L-phenylalanine 1-Methyl Ester]	1500	1,500 times	
COC(=O)[C@H](Cc1ccccc1)NC(=O)[C@H](CC(=O)O)NCCCc1ccc(OCCO)cc1 [Compound 20, N-[N-[3-(4-(2-Hydroxyethoxy)phenyl)propyl]-L-α-aspartyl]-L-phenylalanine 1-Methyl Ester]	1000	1,000 times	
COC(=O)[C@H](Cc1ccccc1)NC(=O)[C@H](CC(=O)O)NCCCc1ccc(OC)cc1O		approximately 20,000 times	
COC(=O)[C@H](Cc1ccccc1)NC(=O)[C@H](CC(=O)O)NCCCc1cc(OC)ccc1O [Compound 12, N-[N-[3-(2-hydroxy-5-methoxyphenyl)propyl]-L-α-aspartyl]-L-phenylalanine 1-methyl ester]	1500	1,500 times	
COC(=O)[C@H](Cc1ccccc1)NC(=O)[C@H](CC(=O)O)NCCCc1ccc(OC)cc1 [Compound 5, N-[N-[3-(4-methoxyphenyl)propyl]-L-α-aspartyl]-L-phenylalanine 1-methyl ester]	6500		Sweetening potency (relative to sugar) ([1]; listed as Example 5): 6,500 times; Sweetening potency (relative to sugar) ([1]; listed as N-[N-(3-(4-methoxyphenyl)propyl]-L-α-aspartyl]-L-phenylalanine 1-methyl ester)): approximately 6,500 times
COC(=O)[C@H](Cc1ccccc1)NC(=O)[C@H](CC(=O)O)NCCCc1cc(OC)cc(OC)c1 [Compound 19, N-[N-[3-(3,5-dimethoxyphenyl)propyl]-L-α-aspartyl]-L-phenylalanine 1-methyl ester]	800	800 times	
COC(=O)[C@H](Cc1ccc(O)cc1)NC(=O)[C@H](CC(=O)O)NCCCc1ccc(OC)c(O)c1 [Compound 9, N-[N-[3-(3-hydroxy-4-methoxyphenyl)propyl]-L-α-aspartyl]-L-tyrosine 1-methyl ester]	16000	approximately 16,000 times	Sweetening potency (relative to sugar) ([1]; listed as Example 10): 16,000 times
COC(=O)[C@H](Cc1ccccc1)NC(=O)[C@H](CC(=O)O)NCCCc1ccc(OC)cc1OC [Compound 14, N-[N-[3-(2,4-dimethoxyphenyl)propyl]-L-α-aspartyl]-L-phenylalanine 1-methyl ester]	4000	4,000 times	
COC(=O)[C@H](Cc1ccccc1)NC(=O)[C@H](CC(=O)O)NCCCc1ccc(OC)c(O)c1 [Compound 1, N-[N-[3-(3-hydroxy-4-methoxyphenyl)propyl]-L-α-aspartyl]-L-phenylalanine 1-methyl ester]	20000		Sweetening potency (relative to sugar) ([1]; listed as Example 1): 20,000 times
COC(=O)[C@H](Cc1ccccc1)NC(=O)[C@H](CC(=O)O)NCCCc1ccc(O)c(OC)c1 [N-[N-[3-(3-methoxy-4-hydroxyphenyl)propyl]-L-α-aspartyl]-L-phenylalanine 1-methyl ester]			sweetening potency [2]: 2,500 times that of sugar
COC(=O)[C@H](Cc1ccccc1)NC(=O)[C@H](CC(=O)O)NCCCc1ccc(OC)c(C)c1 [Compound 18, N-[N-[3-(3-methyl-4-methoxyphenyl)propyl]-L-α-aspartyl]-L-phenylalanine 1-methyl ester]	8000	8,000 times	
COC(=O)[C@H](Cc1ccccc1)NC(=O)[C@H](CC(=O)O)NCCCc1ccc(C)c(O)c1 [Compound 17, N-[N-[3-(3-hydroxy-4-methylphenyl)propyl]-L-α-aspartyl]-L-phenylalanine 1-methyl ester]	15000		Sweetening potency (relative to sugar) ([1]; listed as Example 18): 15,000 times
COC(=O)[C@H](Cc1ccccc1)NC(=O)[C@H](CC(=O)O)NCCCc1cccc(OC)c1 [Compound 8, N-[N-[3-(3-Methoxyphenyl)propyl]-L-α-aspartyl]-L-phenylalanine 1-Methyl Ester]	3500	3,500 times	
